In brackets after ≈: the same amount, converted by molar mass. Activity calls are given as the source filed them. No cut-off for these calls is given here.
Legend:
Staphylococcus aureus [1] = assay: Antimicrobial activity against Staphylococcus aureus ATCC 29213 by broth dilution method; assay type: functional
[2] = test system: Staphylococcus epidermidis; assay: Antimicrobial activity against Staphylococcus epidermidis ATCC 12228 by broth dilution method; assay type: functional
Escherichia coli [3] = assay: Antimicrobial activity against Escherichia coli ATCC 11229 by broth dilution method; assay type: functional
Pseudomonas aeruginosa [4] = assay: Antimicrobial activity against Pseudomonas aeruginosa ATCC 27853 by broth dilution method; assay type: functional
[5] = test system: Staphylococcus epidermidis; assay: Bactericidal activity against Staphylococcus epidermidis ATCC 12228 after 24 hrs; assay type: functional; settings: ATCC 12228, 24 h
Staphylococcus aureus [6] = assay: Bacteriostatic activity against Staphylococcus aureus ATCC 29213 after 24 hrs; assay type: functional, organism-based
Escherichia coli [7] = assay: Bacteriostatic activity against Escherichia coli ATCC 11229 after 24 hrs; assay type: functional, organism-based
Pseudomonas aeruginosa [8] = assay: Bacteriostatic activity against Pseudomonas aeruginosa ATCC 27853 after 24 hrs; assay type: functional, organism-based
Candida albicans = assay: Antifungal activity against Candida albicans ATCC 18804 by broth microdilution method; assay type: functional
Candida tropicalis = assay: Antifungal activity against Candida tropicalis ATCC 750 by broth microdilution method; assay type: functional
Nakaseomyces glabratus = assay: Antifungal activity against Candida glabrata ATCC 90030 by broth microdilution method; assay type: functional
Candida parapsilosis = assay: Antifungal activity against Candida parapsilosis ATCC 22019 by broth microdilution method; assay type: functional; settings: Lodderomyces parapsilosis
Staphylococcus aureus [9] = assay: Bactericidal activity against methicillin-resistant Staphylococcus aureus clinical isolate 1 after 24 hrs; assay type: functional; settings: isolate 1, 24 h
Staphylococcus aureus [10] = assay: Bactericidal activity against methicillin-resistant Staphylococcus aureus clinical isolate 2 after 24 hrs; assay type: functional; settings: isolate 2, 24 h
Staphylococcus aureus [11] = assay: Bactericidal activity against methicillin-resistant Staphylococcus aureus clinical isolate 3 after 24 hrs; assay type: functional; settings: isolate 3, 24 h
Staphylococcus aureus [12] = assay: Bactericidal activity against methicillin-resistant Staphylococcus aureus clinical isolate 4 after 24 hrs; assay type: functional; settings: isolate 4, 24 h
Staphylococcus aureus [13] = assay: Bactericidal activity against methicillin-resistant Staphylococcus aureus clinical isolate 5 after 24 hrs; assay type: functional; settings: isolate 5, 24 h
Staphylococcus aureus [14] = assay: Bactericidal activity against methicillin-resistant Staphylococcus aureus clinical isolate 6 after 24 hrs; assay type: functional; settings: isolate 6, 24 h
Staphylococcus aureus [15] = assay: Bactericidal activity against methicillin-resistant Staphylococcus aureus clinical isolate 7 after 24 hrs; assay type: functional; settings: isolate 7, 24 h
Staphylococcus aureus [16] = assay: Bactericidal activity against methicillin-resistant Staphylococcus aureus clinical isolate 8 after 24 hrs; assay type: functional; settings: isolate 8, 24 h
Staphylococcus aureus [17] = assay: Bactericidal activity against methicillin-resistant Staphylococcus aureus clinical isolate 9 after 24 hrs; assay type: functional; settings: isolate 9, 24 h
Staphylococcus aureus [18] = assay: Bactericidal activity against methicillin-resistant Staphylococcus aureus clinical isolate 10 after 24 hrs; assay type: functional; settings: isolate 10, 24 h
Staphylococcus aureus [19] = assay: Bactericidal activity against methicillin-resistant Staphylococcus aureus clinical isolate 11 after 24 hrs; assay type: functional; settings: isolate 11, 24 h
Staphylococcus aureus [20] = assay: Bactericidal activity against methicillin-resistant Staphylococcus aureus clinical isolate 12 after 24 hrs; assay type: functional; settings: isolate 12, 24 h
Staphylococcus aureus [21] = assay: Bactericidal activity against methicillin-resistant Staphylococcus aureus clinical isolate 13 after 24 hrs; assay type: functional; settings: isolate 13, 24 h
Staphylococcus aureus [22] = assay: Bactericidal activity against methicillin-resistant Staphylococcus aureus clinical isolate 14 after 24 hrs; assay type: functional; settings: isolate 14, 24 h
Staphylococcus aureus [23] = assay: Bactericidal activity against methicillin-resistant Staphylococcus aureus clinical isolate 15 after 24 hrs; assay type: functional; settings: isolate 15, 24 h
Staphylococcus aureus [24] = assay: Bactericidal activity against methicillin-resistant Staphylococcus aureus clinical isolate 16 after 24 hrs; assay type: functional; settings: isolate 16, 24 h
Staphylococcus aureus [25] = assay: Bactericidal activity against methicillin-resistant Staphylococcus aureus clinical isolate 17 after 24 hrs; assay type: functional; settings: isolate 17, 24 h
Staphylococcus aureus [26] = assay: Bactericidal activity against methicillin-resistant Staphylococcus aureus clinical isolate 18 after 24 hrs; assay type: functional; settings: isolate 18, 24 h
Staphylococcus aureus [27] = assay: Bactericidal activity against methicillin-resistant Staphylococcus aureus clinical isolate 19 after 24 hrs; assay type: functional; settings: isolate 19, 24 h
Staphylococcus aureus [28] = assay: Bactericidal activity against methicillin-resistant Staphylococcus aureus clinical isolate 20 after 24 hrs; assay type: functional; settings: isolate 20, 24 h
Staphylococcus aureus [29] = assay: Bactericidal activity against methicillin-resistant Staphylococcus aureus clinical isolate 21 after 24 hrs; assay type: functional; settings: isolate 21, 24 h
Staphylococcus aureus [30] = assay: Bactericidal activity against methicillin-resistant Staphylococcus aureus clinical isolate after 24 hrs; assay type: functional
[31] = test system: Staphylococcus epidermidis; assay: Bacteriostatic activity against Staphylococcus epidermidis ATCC 12228 after 24 hrs; assay type: functional, organism-based
Staphylococcus aureus [32] = assay: Bactericidal activity against Staphylococcus aureus ATCC 29213 after 24 hrs; assay type: functional; settings: ATCC 29213, 24 h
Escherichia coli [33] = assay: Bactericidal activity against Escherichia coli ATCC 11229 after 24 hrs; assay type: functional; settings: ATCC 11229, 24 h
Pseudomonas aeruginosa [34] = assay: Bactericidal activity against Pseudomonas aeruginosa ATCC 27853 after 24 hrs; assay type: functional; settings: ATCC 27853, 24 h

CCCCCCCC/C=C\CCCCCCCC(=O)NCCCCN
MIC (Staphylococcus aureus [1]): 16 µg/mL (≈ 45.4 µM)
MIC [2]: 4 µg/mL (≈ 11.3 µM)
MIC (Escherichia coli [3]): 8 µg/mL (≈ 22.7 µM)
MIC (Pseudomonas aeruginosa [4]): > 1020 µg/mL
MBC [5]: 128 µg/mL (≈ 363 µM)
Activity (Staphylococcus aureus [6]): Active
Activity (Escherichia coli [7]): Active
Activity (Pseudomonas aeruginosa [8]): Active
MIC (Candida albicans): 2 µg/mL (≈ 5.67 µM)
MIC (Candida tropicalis): 4 µg/mL (≈ 11.3 µM)
MIC (Nakaseomyces glabratus): 2 µg/mL (≈ 5.67 µM)
MIC (Candida parapsilosis): 1 µg/mL (≈ 2.84 µM)

O=C(N[C@H](CO)[C@H](O)c1ccc([N+](=O)[O-])cc1)C(Cl)Cl [CHLORAMPHENICOL]
MIC [2]: 32 µg/mL (≈ 99 µM)
MIC (Pseudomonas aeruginosa [4]): 32 µg/mL (≈ 99 µM)
MBC [5]: 128 µg/mL (≈ 396 µM)
Activity (Staphylococcus aureus [6]): Active
Activity (Escherichia coli [7]): Active
Activity (Pseudomonas aeruginosa [8]): Active
MBC (Staphylococcus aureus [9]): 64 µg/mL (≈ 198 µM)
MBC (Staphylococcus aureus [10]): 4 µg/mL (≈ 12.4 µM)
MBC (Staphylococcus aureus [11]): 4 µg/mL (≈ 12.4 µM)
MBC (Staphylococcus aureus [12]): 8 µg/mL (≈ 24.8 µM)
MBC (Staphylococcus aureus [13]): 4 µg/mL (≈ 12.4 µM)
MBC (Staphylococcus aureus [14]): 8 µg/mL (≈ 24.8 µM)
MBC (Staphylococcus aureus [15]): 64 µg/mL (≈ 198 µM)
MBC (Staphylococcus aureus [16]): 64 µg/mL (≈ 198 µM)
MBC (Staphylococcus aureus [17]): 8 µg/mL (≈ 24.8 µM)
MBC (Staphylococcus aureus [18]): 64 µg/mL (≈ 198 µM)
MBC (Staphylococcus aureus [19]): 64 µg/mL (≈ 198 µM)
MBC (Staphylococcus aureus [20]): 64 µg/mL (≈ 198 µM)
MBC (Staphylococcus aureus [21]): 64 µg/mL (≈ 198 µM)
MBC (Staphylococcus aureus [22]): 64 µg/mL (≈ 198 µM)
MBC (Staphylococcus aureus [23]): 32 µg/mL (≈ 99 µM)
MBC (Staphylococcus aureus [24]): 32 µg/mL (≈ 99 µM)
MBC (Staphylococcus aureus [25]): 4 µg/mL (≈ 12.4 µM)
MBC (Staphylococcus aureus [26]): 8 µg/mL (≈ 24.8 µM)
MBC (Staphylococcus aureus [27]): 128 µg/mL (≈ 396 µM)
MBC (Staphylococcus aureus [28]): 4 µg/mL (≈ 12.4 µM)
MBC (Staphylococcus aureus [29]): 8 µg/mL (≈ 24.8 µM)
MIC90 (Staphylococcus aureus [30]): 32 µg/mL (≈ 99 µM)

CCCCCCCCCCCCCC(=O)NCCCN
MIC (Staphylococcus aureus [1]): > 1020 µg/mL
MIC [2]: 1020 µg/mL (≈ 3600 µM)
MIC (Escherichia coli [3]): > 1020 µg/mL
MIC (Pseudomonas aeruginosa [4]): 1020 µg/mL (≈ 3600 µM)
Activity [31]: Active
Activity (Pseudomonas aeruginosa [8]): Active
MIC (Candida albicans): 32 µg/mL (≈ 112 µM)
MIC (Candida tropicalis): 32 µg/mL (≈ 112 µM)
MIC (Nakaseomyces glabratus): 64 µg/mL (≈ 225 µM)
MIC (Candida parapsilosis): 16 µg/mL (≈ 56.2 µM)

CCCCCCCCCCCCCC(=O)NCCCCN
MIC (Staphylococcus aureus [1]): 16 µg/mL (≈ 53.6 µM)
MIC [2]: 16 µg/mL (≈ 53.6 µM)
MIC (Escherichia coli [3]): 256 µg/mL (≈ 858 µM)
MIC (Pseudomonas aeruginosa [4]): 1020 µg/mL (≈ 3430 µM)
MBC (Staphylococcus aureus [32]): 1020 µg/mL (≈ 3430 µM)
MBC [5]: 32 µg/mL (≈ 107 µM)
MBC (Escherichia coli [33]): 1020 µg/mL (≈ 3430 µM)
MBC (Pseudomonas aeruginosa [34]): 1020 µg/mL (≈ 3430 µM)
MIC (Candida albicans): 16 µg/mL (≈ 53.6 µM)
MIC (Candida tropicalis): 64 µg/mL (≈ 214 µM)
MIC (Nakaseomyces glabratus): 32 µg/mL (≈ 107 µM)
MIC (Candida parapsilosis): 128 µg/mL (≈ 429 µM)

CCCCCCCCCCCC(=O)NCCN
MIC (Staphylococcus aureus [1]): 16 µg/mL (≈ 66 µM)
MIC [2]: 16 µg/mL (≈ 66 µM)
MIC (Escherichia coli [3]): 8 µg/mL (≈ 33 µM)
MIC (Pseudomonas aeruginosa [4]): 8 µg/mL (≈ 33 µM)
MBC (Staphylococcus aureus [32]): 16 µg/mL (≈ 66 µM)
MBC [5]: 16 µg/mL (≈ 66 µM)
MBC (Escherichia coli [33]): 16 µg/mL (≈ 66 µM)
MBC (Pseudomonas aeruginosa [34]): 16 µg/mL (≈ 66 µM)
MBC (Staphylococcus aureus [9]): 1020 µg/mL (≈ 4220 µM)
MBC (Staphylococcus aureus [10]): 256 µg/mL (≈ 1060 µM)
MBC (Staphylococcus aureus [11]): 1020 µg/mL (≈ 4220 µM)
MBC (Staphylococcus aureus [12]): 256 µg/mL (≈ 1060 µM)
MBC (Staphylococcus aureus [13]): 32 µg/mL (≈ 132 µM)
MBC (Staphylococcus aureus [14]): 32 µg/mL (≈ 132 µM)
MBC (Staphylococcus aureus [15]): 32 µg/mL (≈ 132 µM)
MBC (Staphylococcus aureus [16]): 16 µg/mL (≈ 66 µM)
MBC (Staphylococcus aureus [17]): 32 µg/mL (≈ 132 µM)
MBC (Staphylococcus aureus [18]): 32 µg/mL (≈ 132 µM)
MBC (Staphylococcus aureus [19]): > 1020 µg/mL
MBC (Staphylococcus aureus [20]): > 1020 µg/mL
MBC (Staphylococcus aureus [21]): 32 µg/mL (≈ 132 µM)
MBC (Staphylococcus aureus [22]): > 1020 µg/mL
MBC (Staphylococcus aureus [23]): 1020 µg/mL (≈ 4220 µM)
MBC (Staphylococcus aureus [24]): 1020 µg/mL (≈ 4220 µM)
MBC (Staphylococcus aureus [25]): 256 µg/mL (≈ 1060 µM)
MBC (Staphylococcus aureus [26]): 32 µg/mL (≈ 132 µM)
MBC (Staphylococcus aureus [27]): 128 µg/mL (≈ 528 µM)
MBC (Staphylococcus aureus [28]): 256 µg/mL (≈ 1060 µM)
MBC (Staphylococcus aureus [29]): > 1020 µg/mL
MIC50 (Staphylococcus aureus [30]): 32 µg/mL (≈ 132 µM)
MIC90 (Staphylococcus aureus [30]): > 1020 µg/mL
MIC (Candida albicans): 128 µg/mL (≈ 528 µM)
MIC (Candida tropicalis): 16 µg/mL (≈ 66 µM)
MIC (Nakaseomyces glabratus): 16 µg/mL (≈ 66 µM)
MIC (Candida parapsilosis): 16 µg/mL (≈ 66 µM)

CCCCCCCCCCCC(=O)NCCCCN
MIC (Staphylococcus aureus [1]): 64 µg/mL (≈ 237 µM)
MIC [2]: 16 µg/mL (≈ 59.2 µM)
MIC (Escherichia coli [3]): 64 µg/mL (≈ 237 µM)
MIC (Pseudomonas aeruginosa [4]): 32 µg/mL (≈ 118 µM)
MBC (Staphylococcus aureus [32]): 512 µg/mL (≈ 1890 µM)
MBC [5]: 16 µg/mL (≈ 59.2 µM)
MBC (Escherichia coli [33]): 64 µg/mL (≈ 237 µM)
MBC (Pseudomonas aeruginosa [34]): 32 µg/mL (≈ 118 µM)
MIC (Candida albicans): 256 µg/mL (≈ 947 µM)
MIC (Candida tropicalis): 128 µg/mL (≈ 473 µM)
MIC (Nakaseomyces glabratus): 1020 µg/mL (≈ 3790 µM)
MIC (Candida parapsilosis): 256 µg/mL (≈ 947 µM)

CCCCCCCCCCCC(=O)NCCCN
MIC (Staphylococcus aureus [1]): 256 µg/mL (≈ 998 µM)
MIC [2]: 32 µg/mL (≈ 125 µM)
MIC (Escherichia coli [3]): 128 µg/mL (≈ 499 µM)
MIC (Pseudomonas aeruginosa [4]): 64 µg/mL (≈ 250 µM)
MBC [5]: 32 µg/mL (≈ 125 µM)
MBC (Escherichia coli [33]): 512 µg/mL (≈ 2000 µM)
MBC (Pseudomonas aeruginosa [34]): 256 µg/mL (≈ 998 µM)
Activity (Staphylococcus aureus [6]): Active
MIC (Candida albicans): 256 µg/mL (≈ 998 µM)
MIC (Candida tropicalis): 128 µg/mL (≈ 499 µM)
MIC (Nakaseomyces glabratus): 32 µg/mL (≈ 125 µM)
MIC (Candida parapsilosis): 64 µg/mL (≈ 250 µM)

— ChEMBL document CHEMBL3352328, “Synthesis and biological evaluation of a new series of N-acyldiamines as potential antibacterial and antifungal agents” (2014)
